These are literature values, as cited in patent US7250518B2, “Nicotinamide acids, amides, and their mimetics active as inhibitors of PDE4 isozymes” (Pfizer Inc., priority 2001, dated 2007).

Structures are written as SMILES.

Data set [1] relates to PDE4 derived from tumor cells. Particulars: read-out: IC50 against a PDE4 derived from tumor cells.

`Clc1nc2c(N3CCCC3)nc(N3CCNCC3)nc2nc1NCc1ccccc1` [Formula (0.0.55)]: in the data set on tumor cells, the “Concentrations inhibiting the growth of tumor cells” value is “micromolar concentrations”. Also, in data set [1], the IC50 (usually the concentration at which inhibition is half-maximal) is 16 nM.
